Source: ChEMBL document CHEMBL4680272 (Eur J Med Chem, 2020)

Experiment: Inhibition of Influenza A virus (A/California/04/2009 (H1N1-H274Y)) Neuraminidase using MUNANA as substrate preincubated for 5 to 15 mins followed by substrate addition and measured after 30 mins by fluorescence spectrophotometric method

SMILES	IC50
CCC(CC)O[C@@H]1C=C(C(=O)O)C[C@H](NC(N)=O)[C@H]1NC(C)=O	667 nM
CCC(CC)O[C@@H]1C=C(C(=O)O)C[C@H](N)[C@H]1NC(C)=O [OSELTAMIVIR CARBOXYLATE]	4070 nM
